This passage reports MIC results from DBAASP.

What all share (assay): ≥ marks a high value that may be exact or a test limit, other limits are often not marked, values filed in µg/mL are converted to µM
Assay [1] has as its system Pseudomonas aeruginosa ATCC 27853.
Assay [2] relates to Candida albicans NCYC 1467.
Assay [3] has as its system Escherichia coli NCTC 10418.
Assay [4] has as its system Staphylococcus aureus ATCC 12493.
Assay [5] relates to Staphylococcus aureus NCTC 10788.
Assay [6] has as its system Staphylococcus aureus ATCC 25923.
For assay [7], the system named is Escherichia coli ATCC 25922.
In assay [8] the test system is Klebsiella pneumoniae ATCC 13883.
Assay [9] has as its system Klebsiella pneumoniae KpC+001825971.
Assay [10] relates to Escherichia coli KpC+001812446.
The subject of assay [11] is Fusarium graminearum KCTC 16656.
In assay [12] the test system is Colletotrichum gloeosporioides KCTC 6169.
Assay [13] concerns Candida albicans CCARM 14004.
The test system of assay [14] is Trichoderma viride KCTC 16992.
The subject of assay [15] is Candida parapsilosis CCARM 14016.
The subject of assay [16] is Trichophyton rubrum KCTC 6345.
Assay [17] concerns Candida krusei CCARM 14017.
Assay [18] relates to Fusarium solani KCTC 6326.
Assay [19] concerns Candida albicans CCARM 14020.
The subject of assay [20] is Fusarium verticillioides KCTC 6149.
For assay [21], the system named is Aspergillus flavus KCTC 6905.
Assay [22] relates to Candida albicans CCARM 14007.
The subject of assay [23] is Candida albicans KCTC 7270.
In assay [24] the test system is Fusarium oxysporum KCTC 16909.
The subject of assay [25] is Trichoderma virens KCTC 16924.
For assay [26], the system named is Candida albicans CCARM 14001.
The test system of assay [27] is Bacillus cereus ATCC 11778.
The test system of assay [28] is Staphylococcus aureus ATCC 29213.
In assay [29] the test system is Klebsiella aerogenes ATCC 13048.
In assay [30] the test system is Salmonella enterica subsp. enterica serovar Typhimurium ATCC 14028.
The subject of assay [31] is Enterococcus faecium.
The subject of assay [32] is Staphylococcus epidermidis KCTC 1917.
The test system of assay [33] is Escherichia coli KCTC 1682.
The test system of assay [34] is Staphylococcus aureus KCTC 1621.
Assay [35] relates to Pseudomonas aeruginosa KCTC 1637.
The test system of assay [36] is Bacillus subtilis KCTC 3068.
Assay [37] relates to Staphylococcus aureus.
For assay [38], the system named is Salmonella typhimurium KCTC 1926.
Assay [39] has as its system Escherichia coli BL21(DE3).

≈ marks a conversion by molar mass, not a printed value. Where “and” joins values, the source holds several entries; their conditions need not be identical. Identical values can stand only once. A value given as a limit tells only on which side of the number the result lay.

Turning to `CC[C@H](C)[C@@H]1NC(=O)[C@H](CO)NC(=O)[C@H](CCCCN)NC(=O)[C@H]([C@@H](C)O)NC(=O)[C@H](Cc2c[nH]c3ccccc23)NC(=O)[C@@H](NC(=O)CNC(=O)[C@H](CCCN=C(N)N)NC(=O)[C@H](CC(C)C)NC(=O)[C@H](C)N)CSSC[C@@H](C(=O)N2CCC[C@H]2C(N)=O)NC(=O)[C@@H]2CCCN2C(=O)[C@H](CCCCN)NC(=O)[C@@H]2CCCN2C(=O)[C@@H]2CCCN2C1=O` [ALRGCWTKSIPPKPCP], the MIC (usually the least concentration at which growth counts as inhibited) in assay [1] is above 512 µM; in assay [2] it was at least 512 µM; in [3], at least 128 µM; in [4], at least 512 µM; in assay [5] it was at least 128 µM.

As for `CC[C@H](C)[C@H](NC(=O)[C@H](CCCCN)NC(=O)[C@H](CCCCN)NC(=O)[C@H](CC(C)C)NC(=O)[C@H](CO)NC(=O)CNC(=O)[C@H](CO)NC(=O)CNC(=O)[C@H](CO)NC(=O)CNC(=O)[C@H](CO)NC(=O)CN)C(=O)N[C@@H](Cc1ccccc1)C(=O)N[C@@H](CCCCN)C(=O)N[C@@H](CCCCN)C(=O)N1CCC[C@H]1C(=O)N[C@@H](CCSC)C(=O)N[C@H](C(=O)N[C@H](C(=O)NCC(=O)N[C@H](C(=O)N[C@H](C(=O)N[C@H](C(=O)N1CCC[C@H]1C(=O)N[C@@H](Cc1ccccc1)C(N)=O)[C@@H](C)CC)[C@@H](C)O)C(C)C)[C@@H](C)CC)C(C)C` [GSGSGSGSLKKIFKKPMVIGVTIPF], the MIC is 25.2 µM (≈ 64 µg/mL) in assay [6]; 0.789 µM (≈ 2 µg/mL) in [7]; 0.789 µM (≈ 2 µg/mL) in [8]; 6.31 µM (≈ 16 µg/mL) in [9]; 0.789 µM (≈ 2 µg/mL) in [10].

With `NCCCC[C@H](NC(=O)[C@H](CCCCN)NC(=O)[C@H](Cc1cnc[nH]1)NC(=O)[C@H](CCCCN)NC(=O)[C@H](CCCCN)NC(=O)[C@H](Cc1cnc[nH]1)NC(=O)[C@H](CCCCN)NC(=O)[C@H](CCCCN)NC(=O)[C@H](Cc1cnc[nH]1)NC(=O)[C@H](CCCCN)NC(=O)[C@H](CCCCN)NC(=O)[C@@H](N)Cc1cnc[nH]1)C(N)=O` [HKKHKKHKKHKK], the MIC is 16 µM (≈ 25.5 µg/mL) in [11]; 2 µM (≈ 3.18 µg/mL) in assay [12]; at least 32 µM in [13]; 4 µM (≈ 6.36 µg/mL) in assay [14]; at least 32 µM in assay [15]; 16 µM (≈ 25.5 µg/mL) in assay [16]. In addition, the minimal inhibitory concentration (MIC) in assay [17] is 4 µM (≈ 6.36 µg/mL); in assay [18], 4 µM (≈ 6.36 µg/mL); in assay [19], at least 32 µM; in assay [20], 4 µM (≈ 6.36 µg/mL); in assay [21] it was 8 µM (≈ 12.7 µg/mL); in [22], at least 32 µM. The MIC in [23] is at least 32 µM; in [24], 4 µM (≈ 6.36 µg/mL); in assay [25] it was 16 µM (≈ 25.5 µg/mL); in assay [26] it was at least 32 µM.

As for `NCCCC[C@H](NC(=O)[C@H](CCCCN)NC(=O)[C@@H](N)Cc1cnc[nH]1)C(N)=O` [HKK], the MIC in assay [11] was at least 512 µM; in [12], at least 1020 µM; in assay [13], at least 1020 µM; in assay [14], at least 256 µM; in assay [15], at least 1020 µM; in assay [16], at least 512 µM. In addition, the MIC in assay [17] is at least 512 µM; in [18], at least 256 µM; in assay [19] it was at least 1020 µM; in assay [20] it was at least 256 µM; in assay [21], at least 256 µM; in [22] it was at least 1020 µM. Besides, the MIC is at least 1020 µM in assay [23], at least 256 µM in assay [24], at least 512 µM in [25] and at least 1020 µM in [26].

As for `CC[C@H](C)[C@H](N)C(=O)N[C@@H](CC(C)C)C(=O)NCC(=O)N[C@@H](C)C(=O)N[C@H](C(=O)N[C@@H](Cc1c[nH]c2ccccc12)C(=O)N[C@@H](CC(N)=O)C(=O)NCC(=O)N[C@H](C(=O)N[C@@H](CCCCN)C(=O)N[C@@H](CO)C(=O)N[C@@H](CC(C)C)C(=O)N[C@@H](Cc1ccccc1)C(N)=O)C(C)C)C(C)C` [ILGAVWNGVKSLF], the MIC in assay [27] was at least 71.2 µM; in [7], above 71.2 µM; in assay [28] it was above 71.2 µM; in assay [29] it was at least 71.2 µM; in [30], above 71.2 µM.

Consider `CC[C@H](C)[C@H](N)C(=O)N[C@@H](CC(C)C)C(=O)NCC(=O)N[C@@H](CCCCN)C(=O)N[C@H](C(=O)N[C@@H](Cc1c[nH]c2ccccc12)C(=O)N[C@@H](CCC(=O)O)C(=O)NCC(=O)N[C@H](C(=O)N[C@@H](CCC(=O)O)C(=O)N[C@@H](CO)C(=O)N[C@@H](CC(C)C)C(=O)N[C@@H](Cc1ccccc1)C(N)=O)[C@@H](C)CC)[C@@H](C)CC` [ILGKIWEGIESLF], for which the MIC in [27] was at least 66.5 µM; in assay [7] it was above 66.5 µM; in assay [28], above 66.5 µM; in assay [29] it was at least 66.5 µM; in assay [30] it was above 66.5 µM.

As for `NCCCC[C@H](NC(=O)[C@H](CCCCN)NC(=O)[C@H](Cc1ccccc1)NC(=O)[C@@H]1CCCN1C(=O)[C@H](Cc1c[nH]c2ccccc12)NC(=O)[C@H](Cc1c[nH]c2ccccc12)NC(=O)[C@H](Cc1c[nH]c2ccccc12)NC(=O)[C@@H]1CCCN1C(=O)[C@H](Cc1ccccc1)NC(=O)[C@H](CCCCN)NC(=O)[C@@H](N)CCCCN)C(=O)O` [KKFPWWWPFKK], the minimum inhibitory concentration (MIC) amounted to 5.07 µM (≈ 8 µg/mL) in assay [31]; 0.634 µM (≈ 1 µg/mL) in [32]; 5.07 µM (≈ 8 µg/mL) in assay [33]; 2.54 µM (≈ 4 µg/mL) in assay [34]; 5.07 µM (≈ 8 µg/mL) in assay [35]; 1.27 µM (≈ 2 µg/mL) in [36]. Besides, the minimum inhibitory concentration (MIC) in assay [37] was found to be 3.58 µM (≈ 5.66 µg/mL); in assay [38], 5.07 µM (≈ 8 µg/mL).

`CC[C@H](C)[C@H](NC(=O)[C@H](CC(C)C)NC(=O)[C@H](CCCN=C(N)N)NC(=O)[C@@H](N)CCCN=C(N)N)C(=O)N[C@@H](CCCN=C(N)N)C(=O)N[C@@H](CC(C)C)C(=O)N[C@@H](Cc1c[nH]c2ccccc12)C(=O)N[C@@H](CC(C)C)C(=O)N[C@@H](CCCN=C(N)N)C(=O)N[C@@H](CC(C)C)C(=O)N[C@@H](CC(C)C)C(=O)N[C@@H](CCCN=C(N)N)C(N)=O` [RRLIRLWLRLLR]: the MIC is 4 µM (≈ 6.65 µg/mL) in assay [8]; 8 µM and 4 µM in assay [39].
